# US20160258954A1, “METHOD OF DIAGNOSING AND TREATING EPSTEIN BARR VIRUS-BASED MYALGIC ENCEPHALOMYELITIS CHRONIC FATIGUE SYNDROME PATIENTS USING A SERUM ANTIBODY ASSAY” (CFS, LLC, priority 2015, published 2016)
# What was measured:
# [1] = Group A patients
# [2] = test system: EBV subset ME/CFS patients; experiment: Energy Index Point Score (EIPS) of six EBV subset ME/CFS patients treated with valacyclovir for over 12 months; format: in vivo, human
# Excerpt: FIG. 2A is a table depicting the clinical results that establish EBV Abortive Lytic replication in the first of six EBV subset ME/CFS patients treated with valacyclovir for over 12 months;
# As depicted in FIG. 1, the Energy Index (EI) point score (Copyright, Lerner AM and Deeter R G, 1999), is a simple and reliable metric that can be used to easily evaluate the functional capacity of the CFS patient at each patient-physician visit. *The CFS Energy Index point score can also be determined by questionnaire (US copyright, 1999 Lerner A. M., Deeter, R. J) reproduced with permission. **Kcal per day is calculated for a 70 kg CFS patient. The EI is measured on a scale of 1-10. Validation of the EI was done using two methods: 1.) 20 CFS patients and 22 healthy adults, matched for sex, age, place, and time; EI, CFS=3.6; EI, healthy adults=9.9, p=<0.0001; and 2.) 55 CFS patients evaluated at the same time by the EI and fatigue severity score, correlation 0.67, p=0.0066. Improvement to disappearance of CFS symptoms correlates with an increasing EI.
# The validated energy index point score generally can be calculated for each CFS patient every 3 months at physician visits. […]
# Demographics. […] The EIPS is a validated (FSS-9 item scale with high degree of internal consistency measured by Cronbach's alpha) is a Functional Activity Appraisal: energy Index Score Healthcare worker Appraisal.
# SEID patients = experiment: Reviews of antiviral therapy of EBV, CMV and HHV6 subset Group A SEID patients; format: in vivo, human; conditions: cidofovir: unpublished studies
# Excerpt: These antiviral agents inhibit the respective DNA polymerases of the appropriate CMV, EBV, HHV6 herpesviruses.[8] […] Herpesvirus (EBV, CMV, HHV6) abortive lytic replication may be associated with SEID.
# [3] = test system: Group A ME/CFS patients (EBV, HCMV, HHV6 subsets); experiment: Systematic review 2001-2007 of Group A ME/CFS patients given subset-directed antiviral treatment; format: in vivo, human; conditions: 79 of 106 group A patients, pooled valacyclovir (EBV subset) or valganciclovir (HCMV, HHV6 subsets); p<0.0001
# Excerpt: A ME/CFS diagnostic panel was created utilizing initial Fukuda/Carruthers criteria and a systematic review of 142 ME/CFS patients. Two groups of ME/CFS patients were found. Group A patients had elevated serum IgG antibody titers to the herpes viruses Epstein-Barr virus (EBV), cytomegalovirus (HCMV) and Human Herpes virus 6 (HHV6) in single or multiple virus infection, but no other co-infections. Group B patients had similar elevated herpes virus antibody titers, plus serologic evidence of co-infections, tick-borne (“Borrelia burgdorferi”, “Anaplasma phagocytophilia”, “Babesia microti”); “Mycoplasma pneumoniae”; or adult rheumatoid fever. One hundred and six group A ME/CFS patients were followed from 2001-2007, and treated with subset directed valacyclovir EBV subset or valganciclovir (HCMV, HHV6 subsets). The data included over 7000 patient visits and 35,000 data entries.
# EBV thymidine kinase = EBV thymidine kinase (Epstein-Barr virus, UniProt P03177); conditions: after gastrointestinal absorption; cited from earlier work
# CFS patients = experiment: Cidofovir treatment of CFS patients; format: in vivo, human
# Method: In general, to provide a therapeutically effective amount of the antiviral agent, a suitable effective dose will be in the range of 0.1 to 20 grams a day and preferably in the range between 0.3 to 15 grams per day, more preferably about 0.5 to 10 grams per day. The dosage of course, varies with the body weight of the patient up to a 70 kg individual, a dose of 4 grams per day may be appropriate (e.g., […] valacyclovir every six hours). The desired dose can be presented as two-four or more smaller doses administered at appropriate intervals throughout the day. These smaller doses may be administered in unit's dosage forms. For example, for valacyclovir and famciclovir, the dosage can be, for example 14 mg/kg every 6 hours (1.0 g every 6 hours for a 70 kg person). The dosage of valacyclovir and famciclovir can be, for example, up to or at least about 0.5-8 grams every 6 hours. The dosage of valgancyclovir can be, for example, from about 450-900 mg every 12 hours, or up to or at least about 100-2000 mg or more every 12 hours, depending on for example patient weight and tolerance. For maribavir the dosage can be, for example, for about 400-500 mg every 8 hours or for example up to or at least about 100-1000 or more every 8 hours. […] Accordingly, the dosage is adjusted to […] every two weeks. […]
# EBV thymidine kinase, sequence (P03177 whole entry): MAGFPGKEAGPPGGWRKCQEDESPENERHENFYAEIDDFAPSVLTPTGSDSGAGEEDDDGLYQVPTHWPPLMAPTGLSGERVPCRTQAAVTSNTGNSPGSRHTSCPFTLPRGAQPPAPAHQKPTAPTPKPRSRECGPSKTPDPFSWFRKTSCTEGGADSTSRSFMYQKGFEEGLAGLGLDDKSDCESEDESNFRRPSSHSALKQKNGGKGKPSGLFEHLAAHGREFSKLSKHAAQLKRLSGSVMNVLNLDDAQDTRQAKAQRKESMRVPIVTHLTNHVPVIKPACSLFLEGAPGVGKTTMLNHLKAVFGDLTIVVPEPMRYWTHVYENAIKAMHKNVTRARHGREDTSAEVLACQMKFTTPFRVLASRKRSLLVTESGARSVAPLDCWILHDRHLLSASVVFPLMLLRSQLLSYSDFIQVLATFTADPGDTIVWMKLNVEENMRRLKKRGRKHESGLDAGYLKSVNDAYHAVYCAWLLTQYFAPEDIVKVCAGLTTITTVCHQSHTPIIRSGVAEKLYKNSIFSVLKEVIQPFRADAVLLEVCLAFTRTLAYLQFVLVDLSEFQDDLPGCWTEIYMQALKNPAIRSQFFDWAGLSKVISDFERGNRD
SMILES,therapeutic result in SEID patients (SEID patients),Group A patients recovered to resume normal life [3] [%],also measured
Nc1nc2c(ncn2COCCO)c(=O)[nH]1 [acylocivir],–,–,absorption [1]: typically not absorbed
CC(C)[C@H](N)C(=O)OCCOCn1cnc2c(=O)[nH]c(N)nc21 [valacyclovir],salutary results,74.5,"final EIPS values ([2]; 5 group A ME/CFS patients, one year later, initial EIPS 3.5-5.0 (one patient 6)): 7-8; final EIPS value ([2]; single group B ME/CFS patient (Borrelia burgdorferi co-infection), baseline 3.5): 5; greater affinity for EBV thymidine kinase than for the host cellular enzyme (EBV thymidine kinase): 200 ×"
CC(=O)OCC(CCn1cnc2cnc(N)nc21)COC(C)=O [famciclovir],salutary results,–,–
Nc1ccn(C[C@@H](CO)OCP(=O)(O)O)c(=O)n1 [cidofovir],salutary results,–,"effectiveness relative to other antiviral agents (CFS patients; administered intravenously): two to three time more effective; treatment time (CFS patients; patients over 50 and/or CFS over 10 years, reduced from over one year): 6-9 months"
CC(C)[C@H](N)C(=O)OCC(CO)OCn1cnc2c(=O)nc(N)[nH]c21 (stereo partly drawn) [valganciclovir],salutary results,74.5,–
